Earlier results in US6627153B1, “Integrated assay for organ function, drugs and/or one or more metabolites” (priority 1999, dated 2003).

Settings: following oral administration; within the first 24 hours

In the case of `CN(C)C(=N)N=C(N)N` [Metformin], the “absorbed drug eliminated via the renal route” value is given as 90%.
